Results published in patent US20230136569A1, “USE OF NMN TO REDUCE IMMUNODEPRESSION AND IMMUNOSENESCENCE” (NUVAMID SA, priority 2020, published 2023).

What was measured:
Format in all cases: in vivo
[1] = test system: old mice (aged 15 months); assay: Study of the effects on immunosenescence in old mice (overall conclusion); conditions: old mice (15 months), 500 mg/kg p.o. in drinking water; concluding statement
Protocol: The administering of β-NMN at 500 mg/kg, of α-NMN at 500 mg/kg and of the vehicle (water) was obtained via oral route (p.o) in the drinking water to young and old mice. The solutions were prepared by dissolving the powder of β-NMN or α-NMN in the vehicle (water). The solution was used at ambient temperature for no more than 2 days and was freshly prepared for each new administration. The mice were weighed each week to adapt the dose of the compound to be administered. Throughout the entire phase, a standard food diet and tap water were provided ad libitum. The study comprised 4 groups each having 6 mice: • Group 1: young mice (aged 10 weeks)+drinking water (vehicle) • Groupe 2: old mice (aged 15 months)+drinking water (vehicle) • Group 3: old mice (aged 15 months)+compound I-B (alpha-NMN) in the drinking water • Group 4: old mice (aged 15 months)+compound I-A (beta-NMN) in the drinking water The water consumption of the mice was assessed per cage every other day. The mice were weighed every week. The mice in Group 3 were sacrificed after 4 weeks for organ collection and characterisation of T cell function. The mice in Group 4 were sacrificed after 6 weeks for organ collection and characterisation of T cell function. […] The thymus was weighed and measured to evaluate involution thereof. […]

[2] = test system: B cells in the bone marrow; assay: Flow cytometry of B cells in bone marrow of old mice; conditions: 500 mg/kg p.o., α-NMN 4 weeks; for number of CD38+ B cells in bone marrow: β-NMN 6 weeks (FIG. 4B); for number of CD45+ B cells in bone marrow: β-NMN 6 weeks (FIG. 5A); for number of pre-pro-B cells in bone marrow: β-NMN 6 weeks (FIG. 5B); for number of pro-B cells in bone marrow: β-NMN 6 weeks (FIG. 5C); for number of pre-B cells in bone marrow: β-NMN 6 weeks (FIG. 5D); for number of immature B cells in bone marrow: β-NMN 6 weeks (FIG. 5E); for number of B cells in bone marrow: β-NMN 6 weeks, vs non-treated old mice (FIG. 4A)
Protocol: The administering of β-NMN at 500 mg/kg, of α-NMN at 500 mg/kg and of the vehicle (water) was obtained via oral route (p.o) in the drinking water to young and old mice. The solutions were prepared by dissolving the powder of β-NMN or α-NMN in the vehicle (water). The study comprised 4 groups each having 6 mice: • Group 1: young mice (aged 10 weeks)+drinking water (vehicle) • Groupe 2: old mice (aged 15 months)+drinking water (vehicle) • Group 3: old mice (aged 15 months)+compound I-B (alpha-NMN) in the drinking water • Group 4: old mice (aged 15 months)+compound I-A (beta-NMN) in the drinking water The water consumption of the mice was assessed per cage every other day. The mice were weighed every week. The mice in Group 3 were sacrificed after 4 weeks for organ collection and characterisation of T cell function. The mice in Group 4 were sacrificed after 6 weeks for organ collection and characterisation of T cell function. On the day of sacrifice, the mice were anaesthetised with Vetoflurane (isoflurane) and blood samples were taken from the retroorbital sinus. The blood was incubated for 30 minutes at ambient temperature and then centrifuged at 1300 g for 10 minutes. After sacrificing of the mice, the spleen, thymus, and bone marrow of each animal were removed. The thymus was weighed and measured to evaluate involution thereof. For illustration purposes, photos of the thymus were taken on 5 animals per group. The thymus was divided into two parts: one part was treated with formol for histological examination. The second part was treated for characterisation of the immune cells. For characterisation of the cells, the thymus and spleen were crushed through a sieve of […] over a 50 mL tube with a syringe plunger. The bone marrow was rinsed with RPMI culture medium using a needle and syringe. The cell suspension was then centrifuged at 400 g for 5 minutes at 4° C. Lysis of the red blood cells was also performed before the cell count and use thereof for cytometry. The isolated cells of the spleen, thymus and bone marrow were marked with antibodies in accordance with the following tables to identify the proportion of effector and memory naive T and B cells. The following bone marrow cells were also examined for characterisation as a function of the combination of proteins on the surface thereof: [table] Measured parameters: The results of flow cytometry are expressed in number or as a proportion of cells per organ. The weight of the thymus is expressed in grams.

[3] = test system: thymus; assay: Weight and size of the thymus (thymic involution) in old mice; conditions: old mice (15 months), 500 mg/kg p.o. in drinking water; α-NMN 4 weeks, β-NMN 6 weeks; vs non-treated old mice (FIG. 2)
Protocol: The administering of β-NMN at 500 mg/kg, of α-NMN at 500 mg/kg and of the vehicle (water) was obtained via oral route (p.o) in the drinking water to young and old mice. The solutions were prepared by dissolving the powder of β-NMN or α-NMN in the vehicle (water). The study comprised 4 groups each having 6 mice: • Group 1: young mice (aged 10 weeks)+drinking water (vehicle) • Groupe 2: old mice (aged 15 months)+drinking water (vehicle) • Group 3: old mice (aged 15 months)+compound I-B (alpha-NMN) in the drinking water • Group 4: old mice (aged 15 months)+compound I-A (beta-NMN) in the drinking water The water consumption of the mice was assessed per cage every other day. The mice were weighed every week. The mice in Group 3 were sacrificed after 4 weeks for organ collection and characterisation of T cell function. The mice in Group 4 were sacrificed after 6 weeks for organ collection and characterisation of T cell function. On the day of sacrifice, the mice were anaesthetised with Vetoflurane (isoflurane) and blood samples were taken from the retroorbital sinus. The blood was incubated for 30 minutes at ambient temperature and then centrifuged at 1300 g for 10 minutes. […] The thymus was weighed and measured to evaluate involution thereof. […] Measured parameters: The results of flow cytometry are expressed in number or as a proportion of cells per organ. […]

| SMILES | signs of immunosenescence [1] | number of CD38+ B cells in bone marrow [2] | number of CD45+ B cells in bone marrow [2] | number of pre-pro-B cells in bone marrow [2] | number of pro-B cells in bone marrow [2] | number of pre-B cells in bone marrow [2] | number of immature B cells in bone marrow [2] | number of B cells in bone marrow [2] | weight and size of the thymus [3] |
| --- | --- | --- | --- | --- | --- | --- | --- | --- | --- |
| NC(=O)c1ccc[n+]([C@@H]2O[C@H](COP(=O)([O-])O)[C@@H](O)[C@H]2O)c1 (stereo in doubt) [I-A, nicotinamide mononucleotide] | significant decrease in the signs of immunosenescence | restoring of the number of CD38+ B cells to the level expressed by the young mice | significant increase in the number of CD45+ B cells | increase in the number of pre-pro B cells | does not show any impact on the number of pro-B cells | increase in the number of pre-B cells | increase | significant increase in the number of B cells | significant increase in the size of the thymus |
| NC(=O)c1ccc[n+]([C@H]2O[C@H](COP(=O)([O-])O)[C@@H](O)[C@H]2O)c1 (stereo in doubt) [I-B, alpha nicotinamide mononucleotide] | significant decrease in the signs of immunosenescence | restoring of the number of CD38+ B cells to the level expressed by the young mice | significant increase in the number of CD45+ B cells | increase in the number of pre-pro B cells | does not show any impact on the number of pro-B cells | increase in the number of pre-B cells | increase | significant increase in the number of B cells | did not allow an increase in the volume or size of the thymus |
